According to article PMC12248599, “Exploring the Bioavailability of Red Grape Skin Extract Polyphenols: A Caco-2 Cell Model Study” (Foods, 2025):
“And” between values parts separate entries of the source, which are not always exact repeats. Equal entries are not always repeated. Marks after values point to notes of the source that are not given here.

Tests used:
[1] = Caco-2 monolayer transport (bioavailability) study, AB and BA directions; type: in vitro ADME, Homo sapiens; settings: human; for efflux ratio at 180 min, 15 mg/mL / efflux ratio at 180 min, 22 mg/mL: Caco-2, Papp (BA)/Papp (AB), read-out: ER (efflux ratio); for efflux ratio at 180 min, 15 mg/mL / Papp A→B at 180 min, 15 mg/mL / Papp B→A at 180 min, 15 mg/mL: S1 (15 mg/mL GSE); for efflux ratio at 180 min, 22 mg/mL / Papp A→B at 180 min, 22 mg/mL / Papp B→A at 180 min, 22 mg/mL: S2 (22 mg/mL GSE); for efflux ratio at 180 min: Caco-2, text statement, S1 and S2; for Papp A→B at 180 min, 15 mg/mL / Papp A→B at 180 min, 22 mg/mL / Papp B→A at 180 min, 15 mg/mL / Papp B→A at 180 min, 22 mg/mL: Caco-2; for Papp A→B at 180 min, 15 mg/mL / Papp A→B at 180 min, 22 mg/mL: apical to basolateral; for Papp B→A at 180 min, 15 mg/mL / Papp B→A at 180 min, 22 mg/mL: basolateral to apical
Procedure: (§1) A reversed phase C18 column (Luna 5 μm C18(2) 100 Å, LC Column 250 × 4.6 mm, Phenomenex) was used to separate the polyphenols at a flow rate of 0.7 mL/min with an injection volume of 60 µL. The detection was carried out at 520 nm for anthocyanins (M3G, D3G and Pet3G), at 328 nm for CA, at 356 nm for flavonols (Q3G, K3Gal and K3G) and at 280 nm for GA and SA. The mobile phases were (A) acetonitrile 100% and (B) water 0.1% trifluoroacetic acid (v/v). The gradient was programmed as follows: 10% A 0 min, 10–80% A (0–20 min), 80–100% A (20–25 min), 100% A (25–30 min); 10% A (30–35 min) and 10% A (35–40 min). Every polyphenol was quantified using the corresponding reference standard calibration curve. Each of the quantified phenolic compound concentration was expressed as mg/mL
(§2) For the transport experiment Caco-2 cells were cultured at a density of 4 × 10^4 cells/cm^2 in Transwell inserts (12 mm i.d., 1.12 cm^2 growth area, 0.4 µm mean pore size polycarbonate membranes, Corning Inc., Milwaukee, WI, USA) placed in 12-well plates. Caco-2 cells were grown in DMEM in an incubator at 37 °C in a humidified atmosphere containing 5% CO2.
(§3) Bioavailability studies were performed in triplicate after 21 days of cell growth. Only inserts with stable TEER values higher than ≥300 Ω cm^2 were considered acceptable to perform the bioavailability study. For that purpose, DMEM media was removed, the monolayer was washed with PBS and HBSS was supplied to the cells.
(§4) Likewise, the GSE stock solution was diluted in HBSS medium to prepare GSE solutions S1 and S2. GSE solutions S1 and S2 had concentrations of 15 mg/mL and 22 mg/mL, respectively. These concentrations were established considering previous studies with grape pomace extracts that concluded that intestinal concentrations of 1–2% (w/v) show potential bioactivities and are safe to be used as a food ingredient.
(§5) The apical side represents the intestinal lumen and the basolateral side represents the bloodstream. Each sample (100 µL) was immediately acidified with 1M HCl to a final concentration of 0.007 M and subsequently frozen at −20 °C until analysis by HPLC (according to the method described in Section 2.5). Each experiment was carried out on 3 individual wells. The transport efficiency (TE) percentage was calculated according to Equation (2):Transport efficiency (%) = (C/C0) × 100(2) where, C is the polyphenol concentration at the acceptor side over time and C0 is the initial concentration at the donor side. TE values were calculated for the nine polyphenols identified in the grape skin extract.
(§6) The apparent permeability coefficient (Papp) of the polyphenols in GSE was calculated for apical to basolateral side (AB) and basolateral to apical side (BA) flux studies according to Equation (3):Papp (cm/s) = (dQ/dt) × (VR/AC0)(3) where, dQ/dt is the permeability rate which means the steady-state linear rate of change of concentration (mg/L) per second (s) at the acceptor side; A is the surface area of the cell monolayer (1.12 cm^2). C0 is the initial concentration at the donor side (mg/L) at t = 0 s and VR is the volume of the solution of the acceptor side (mL).
(§7) The efflux ratio (ER) of the polyphenol was assessed by calculating the Equation (4):ER = Papp (BA)/Papp (AB)(4) where, Papp (BA) is the apparent permeability coefficient of the polyphenol from basolateral to apical side and Papp (AB) is the apparent permeability coefficient from apical to basolateral side. ER is a measure of the relative contributions of active and passive transport to bi-direction flux across the cell monolayer.

[2] = system: Caco-2 cell monolayer; experiment: as above; type: in vitro ADME, Homo sapiens; settings: for reduction in concentration on the apical (donor) side / reduction in concentration on the basolateral (donor) side: 0 to 180 min; for TE (%) transport efficiency: after 180 min
Procedure: as §1, §2, §3, §4, §5, §6, §7

[3] = AB experiment, S1 (15 mg/mL GSE)
[4] = AB experiment, S2 (22 mg/mL GSE)
[5] = AB experiment, acceptor side, S1 (15 mg/mL GSE)
[6] = AB experiment, acceptor side, S2 (22 mg/mL GSE)
[7] = AB experiment, donor side, S1 (15 mg/mL GSE)
[8] = AB experiment, donor side, S2 (22 mg/mL GSE)
[9] = AB experiments, basolateral side
[10] = BA experiment, S1 (15 mg/mL GSE)
[11] = BA experiment, S2 (22 mg/mL GSE)
[12] = BA experiment, acceptor side, S1 (15 mg/mL GSE)
[13] = BA experiment, acceptor side, S2 (22 mg/mL GSE)
[14] = BA experiment, donor side, S1 (15 mg/mL GSE)
[15] = BA experiment, donor side, S2 (22 mg/mL GSE)

O=C(/C=C/c1ccc(O)c(O)c1)O[C@@H](C(=O)O)[C@@H](O)C(=O)O [CA, caftaric acid]
efflux ratio at 180 min, 15 mg/mL [1]: 1.3 | efflux ratio at 180 min, 22 mg/mL [1]: 1.4 | efflux ratio at 180 min [1]: > 1 | Papp A→B at 180 min, 15 mg/mL [1]: 74 ± 3 ×10⁻⁶ cm/s | Papp A→B at 180 min, 22 mg/mL [1]: 51 ± 2 ×10⁻⁶ cm/s | Papp B→A at 180 min, 15 mg/mL [1]: 93 ± 7 ×10⁻⁶ cm/s | Papp B→A at 180 min, 22 mg/mL [1]: 73 ± 8 ×10⁻⁶ cm/s | reduction in concentration on the apical (donor) side [2, 3]: 59 ± 4% | TE (%) transport efficiency [2, 3]: 7 ± 1% | reduction in concentration on the apical (donor) side [2, 4]: 44.1 ± 0.7% | TE (%) transport efficiency [2, 4]: 4.4 ± 0.5% and 4.4 ± 0.4% | Basolateral Side 75 min [2, 5]: 0.06 ± 0.01 ^b mg/L | Basolateral Side 90 min [2, 5]: 0.06 ± 0.01 ^b,c mg/L | Basolateral Side 115 min [2, 5]: 0.06 ± 0.01 ^b,c mg/L | Basolateral Side 180 min [2, 5]: 0.07 ± 0.01 ^c mg/L | Basolateral Side 75 min [2, 6]: 0.07 ± 0.01 ^b mg/L | Basolateral Side 90 min [2, 6]: 0.07 ± 0.01 ^b,c mg/L | Basolateral Side 115 min [2, 6]: 0.08 ± 0.01 ^b mg/L | Basolateral Side 180 min [2, 6]: 0.08 ± 0.01 ^b mg/L | Apical Side 0 min [2, 7]: 1.04 ± 0.08 mg/L and 1.04 ± 0.08 ^a mg/L | Apical Side 75 min [2, 7]: 0.84 ± 0.07 ^b mg/L | Apical Side 90 min [2, 7]: 0.67 ± 0.07 ^c mg/L | Apical Side 115 min [2, 7]: 0.54 ± 0.07 ^d mg/L | Apical Side 180 min [2, 7]: 0.43 ± 0.07 mg/L and 0.43 ± 0.07 ^d mg/L | Apical Side 0 min [2, 8]: 1.82 ± 0.03 mg/L and 1.82 ± 0.03 ^a mg/L | Apical Side 75 min [2, 8]: 1.54 ± 0.03 ^b mg/L | Apical Side 90 min [2, 8]: 1.37 ± 0.02 ^c mg/L | Apical Side 115 min [2, 8]: 1.16 ± 0.02 ^d mg/L | Apical Side 180 min [2, 8]: 1.01 ± 0.01 mg/L and 1.01 ± 0.01 ^c mg/L | detection at the acceptor side [2, 9]: detected | reduction in concentration on the basolateral (donor) side [2, 10]: 43.5 ± 0.4% | TE (%) transport efficiency [2, 10]: 11.2 ± 0.8% | reduction in concentration on the basolateral (donor) side [2, 11]: 22.6 ± 0.8% | TE (%) transport efficiency [2, 11]: 8.7 ± 0.9% | Apical Side 75 min [2, 12]: 0.08 ± 0.01 ^b mg/L | Apical Side 90 min [2, 12]: 0.09 ± 0.01 ^c mg/L | Apical Side 115 min [2, 12]: 0.10 ± 0.01 ^d mg/L | Apical Side 180 min [2, 12]: 0.12 ± 0.01 ^c mg/L | Apical Side 75 min [2, 13]: 0.08 ± 0.01 ^a,b mg/L | Apical Side 90 min [2, 13]: 0.10 ± 0.01 ^a,b,c mg/L | Apical Side 115 min [2, 13]: 0.11 ± 0.01 ^b,c mg/L | Apical Side 180 min [2, 13]: 0.12 ± 0.01 ^c mg/L | Basolateral Side 0 min [2, 14]: 1.04 ± 0.03 ^a mg/L | Basolateral Side 75 min [2, 14]: 0.91 ± 0.02 ^b mg/L | Basolateral Side 90 min [2, 14]: 0.80 ± 0.02 ^c mg/L | Basolateral Side 115 min [2, 14]: 0.70 ± 0.02 ^c,d mg/L | Basolateral Side 180 min [2, 14]: 0.59 ± 0.02 ^c mg/L | Basolateral Side 0 min [2, 15]: 1.4 ± 0.1 ^a mg/L | Basolateral Side 75 min [2, 15]: 1.3 ± 0.1 ^b mg/L | Basolateral Side 90 min [2, 15]: 1.23 ± 0.09 ^c mg/L | Basolateral Side 115 min [2, 15]: 1.15 ± 0.08 ^d mg/L | Basolateral Side 180 min [2, 15]: 1.08 ± 0.08 ^c mg/L

O=C(O)c1cc(O)c(O)c(O)c1 [GA, gallic acid]
efflux ratio at 180 min, 15 mg/mL [1]: 0.7 | efflux ratio at 180 min, 22 mg/mL [1]: 0.7 | efflux ratio at 180 min [1]: < 1 | Papp A→B at 180 min, 15 mg/mL [1]: 1690 ± 70 ×10⁻⁶ cm/s | Papp A→B at 180 min, 22 mg/mL [1]: 1800 ± 200 ×10⁻⁶ cm/s | Papp B→A at 180 min, 15 mg/mL [1]: 1150 ± 60 ×10⁻⁶ cm/s | Papp B→A at 180 min, 22 mg/mL [1]: 1290 ± 5 ×10⁻⁶ cm/s | TE (%) transport efficiency [2, 3]: 156 ± 26% | TE (%) transport efficiency [2, 4]: 164 ± 23% | Basolateral Side 75 min [2, 5]: 8.1 ± 0.9 ^b mg/L | Basolateral Side 90 min [2, 5]: 8.6 ± 0.9 ^b mg/L | Basolateral Side 115 min [2, 5]: 9.1 ± 0.9 ^b mg/L | Basolateral Side 180 min [2, 5]: 9.4 ± 0.9 ^b mg/L | Basolateral Side 75 min [2, 6]: 8.1 ± 0.9 ^b mg/L | Basolateral Side 90 min [2, 6]: 8.6 ± 0.9 ^b mg/L | Basolateral Side 115 min [2, 6]: 9.1 ± 0.9 ^b mg/L | Basolateral Side 180 min [2, 6]: 9.6 ± 0.9 ^b mg/L | Apical Side 0 min [2, 7]: 6.1 ± 0.5 ^a mg/L | Apical Side 75 min [2, 7]: 5.0 ± 0.5 ^b mg/L | Apical Side 90 min [2, 7]: 4.1 ± 0.4 ^c mg/L | Apical Side 115 min [2, 7]: 3.4 ± 0.4 ^c,d mg/L | Apical Side 180 min [2, 7]: 2.9 ± 0.3 ^d mg/L | Apical Side 0 min [2, 8]: 5.9 ± 0.3 ^a mg/L | Apical Side 75 min [2, 8]: 5.0 ± 0.3 ^b mg/L | Apical Side 90 min [2, 8]: 4.4 ± 0.3 ^c mg/L | Apical Side 115 min [2, 8]: 3.7 ± 0.3 ^d mg/L | Apical Side 180 min [2, 8]: 3.2 ± 0.3 ^d mg/L | detection at the acceptor side [2, 9]: detected | TE (%) transport efficiency [2, 10]: 165 ± 6% and 164 ± 6% | TE (%) transport efficiency [2, 11]: 188 ± 4% and 188 ± 3% | Apical Side 75 min [2, 12]: 8.1 ± 0.3 ^a,b mg/L | Apical Side 90 min [2, 12]: 9.4 ± 0.2 ^b,c mg/L | Apical Side 115 min [2, 12]: 10.5 ± 0.3 ^c,d mg/L | Apical Side 180 min [2, 12]: 11.3 ± 0.3 ^d mg/L | Apical Side 75 min [2, 13]: 8.3 ± 0.5 ^a,b mg/L | Apical Side 90 min [2, 13]: 9.6 ± 0.5 ^b,c mg/L | Apical Side 115 min [2, 13]: 10.7 ± 0.6 ^c mg/L | Apical Side 180 min [2, 13]: 11.5 ± 0.7 ^c mg/L | Basolateral Side 0 min [2, 14]: 6.9 ± 0.3 ^a mg/L | Basolateral Side 75 min [2, 14]: 6.5 ± 0.3 ^b mg/L | Basolateral Side 90 min [2, 14]: 6.2 ± 0.3 ^c mg/L | Basolateral Side 115 min [2, 14]: 5.9 ± 0.3 ^d mg/L | Basolateral Side 180 min [2, 14]: 5.5 ± 0.2 ^c mg/L | Basolateral Side 0 min [2, 15]: 6.1 ± 0.4 ^a mg/L | Basolateral Side 75 min [2, 15]: 5.7 ± 0.4 ^b mg/L | Basolateral Side 90 min [2, 15]: 5.4 ± 0.4 ^c mg/L | Basolateral Side 115 min [2, 15]: 5.0 ± 0.4 ^d mg/L | Basolateral Side 180 min [2, 15]: 4.7 ± 0.3 ^d mg/L | detection at the acceptor side ([2]; BA experiments, apical side): detected
